Experimental data as given in ChEMBL document CHEMBL5576086, “Macrocarpal B blocks the binding between the phospholipase A2 receptor and its antibodies” (Bioorg Med Chem, 2024).
Active and inactive are the calls of the source. The calls are words filed in the database; no cut-off is given here. Starred links: 1 amine or outer side, 2 acyl side, 3 side chain; linkers in the order of their positions; H or OH if unused. Positions of bridges follow the written chain, without caps; N, C: chain ends. Non-standard residues stand in square brackets, D forms with d. Residues, ends and D or L forms follow the SMILES beside them. Chains are numbered I, II in the order given. Actinocin(9to1) = Cc1c2oc3c(C)ccc(C(=O)[*:1])c3nc-2c(C(=O)[*:2])c(N)c1=O; NMeV = CN[C@H](C(=O)O)C(C)C; Sar = CNCC(=O)O

Assays:
Podocyte [1] = test: Reversal of membranous nephropathy-patient derived 5% plasma induced cytotoxicity against human Podocytes assessed as cell viability recovery by measuring optical density at 5 uM measured at 72 hrs by CCK-8 assay (reference value: 0.3 +/- 0.05); type: functional
Podocyte [2] = test: Reversal of membranous nephropathy-patient derived 5% plasma induced cytotoxicity against human Podocytes assessed as cell viability recovery by measuring optical density at 0.2 uM measured at 72 hrs by CCK-8 assay (reference value: 0.3 +/- 0.05); type: functional
Homo sapiens [3] = species on record: Homo sapiens; test: Binding affinity to human Anti-PLA2R IgG at 1 to 500 uM by SPR analysis; conditions: dose 1-500 µM
Homo sapiens [4] = species on record: Homo sapiens; test: Inhibition of Anti-PLA2R IgG interaction with human recombinant PLA2 receptor by SPR analysis; conditions: dose 50-80 nM
Podocyte [5] = test: Reversal of membranous nephropathy-patient derived 5% plasma induced cytotoxicity against human Podocytes assessed as cell viability recovery by measuring optical density at 0.2 uM measured at 48 hrs by CCK-8 assay (reference value: 0.4 +/- 0.1); type: functional
Homo sapiens [6] = species on record: Homo sapiens; test: Inhibition of Anti-PLA2R IgG interaction with human recombinant PLA2 receptor at 10 uM by SPR analysis relative to control
Podocyte [7] = test: Reversal of membranous nephropathy-patient derived 5% plasma induced inhibition of cell migration in human Podocytes assessed as restoration of number of migrating cells at 1 uM measured upto 24 hrs by wound healing assay (reference value: 25.3 +/- 5.1); type: functional
Podocytes = test: Inhibition of Anti-PLA2R IgG binding to human recombinant PLA2 receptor in human Podocytes assessed as mean fluorescence intensity at 5 uM by immunofluorescence analysis (reference value: 8.1 +/- 1.5); type: cell-based
[8] = target: Secretory phospholipase A2 receptor (Homo sapiens, UniProt Q13018); test: Binding affinity to human recombinant PLA2 receptor assessed as dissociation constant by SPR analysis
Podocyte [9] = test: Recovery of Podocin-expression in membranous nephropathy-patient derived 5% plasma induced human Podocytes by Western blot analysis; type: functional, cell-based; conditions: dose 0.2-5 µM
Homo sapiens [10] = species on record: Homo sapiens; test: Inhibition of Anti-PLA2R IgG interaction with human recombinant PLA2 receptor assessed as maximum inhibition at 0 to 5 uM by SPR analysis relative to control; conditions: dose 0-5 µM
Podocyte [11] = test: Reversal of membranous nephropathy-patient derived 5% plasma induced cytotoxicity against human Podocytes assessed as cell viability recovery by measuring optical density at 1 uM measured at 48 hrs by CCK-8 assay (reference value: 0.4 +/- 0.1); type: functional
Podocyte [12] = test: Reversal of membranous nephropathy-patient derived 5% plasma induced cytotoxicity against human Podocytes assessed as cell viability recovery by measuring optical density at 5 uM measured at 48 hrs by CCK-8 assay (reference value: 0.4 +/- 0.1); type: functional
Podocyte [13] = test: Reversal of membranous nephropathy-patient derived 5% plasma induced cytotoxicity against human Podocytes assessed as cell viability recovery by measuring optical density at 1 uM measured at 72 hrs by CCK-8 assay (reference value: 0.3 +/- 0.05); type: functional
Homo sapiens [14] = species on record: Homo sapiens; test: Inhibition of Anti-PLA2R IgG interaction with human recombinant PLA2 receptor at 10 uM incubated for 1 hr by ELISA analysis relative to control

Sequence of Secretory phospholipase A2 receptor (Q13018 whole entry): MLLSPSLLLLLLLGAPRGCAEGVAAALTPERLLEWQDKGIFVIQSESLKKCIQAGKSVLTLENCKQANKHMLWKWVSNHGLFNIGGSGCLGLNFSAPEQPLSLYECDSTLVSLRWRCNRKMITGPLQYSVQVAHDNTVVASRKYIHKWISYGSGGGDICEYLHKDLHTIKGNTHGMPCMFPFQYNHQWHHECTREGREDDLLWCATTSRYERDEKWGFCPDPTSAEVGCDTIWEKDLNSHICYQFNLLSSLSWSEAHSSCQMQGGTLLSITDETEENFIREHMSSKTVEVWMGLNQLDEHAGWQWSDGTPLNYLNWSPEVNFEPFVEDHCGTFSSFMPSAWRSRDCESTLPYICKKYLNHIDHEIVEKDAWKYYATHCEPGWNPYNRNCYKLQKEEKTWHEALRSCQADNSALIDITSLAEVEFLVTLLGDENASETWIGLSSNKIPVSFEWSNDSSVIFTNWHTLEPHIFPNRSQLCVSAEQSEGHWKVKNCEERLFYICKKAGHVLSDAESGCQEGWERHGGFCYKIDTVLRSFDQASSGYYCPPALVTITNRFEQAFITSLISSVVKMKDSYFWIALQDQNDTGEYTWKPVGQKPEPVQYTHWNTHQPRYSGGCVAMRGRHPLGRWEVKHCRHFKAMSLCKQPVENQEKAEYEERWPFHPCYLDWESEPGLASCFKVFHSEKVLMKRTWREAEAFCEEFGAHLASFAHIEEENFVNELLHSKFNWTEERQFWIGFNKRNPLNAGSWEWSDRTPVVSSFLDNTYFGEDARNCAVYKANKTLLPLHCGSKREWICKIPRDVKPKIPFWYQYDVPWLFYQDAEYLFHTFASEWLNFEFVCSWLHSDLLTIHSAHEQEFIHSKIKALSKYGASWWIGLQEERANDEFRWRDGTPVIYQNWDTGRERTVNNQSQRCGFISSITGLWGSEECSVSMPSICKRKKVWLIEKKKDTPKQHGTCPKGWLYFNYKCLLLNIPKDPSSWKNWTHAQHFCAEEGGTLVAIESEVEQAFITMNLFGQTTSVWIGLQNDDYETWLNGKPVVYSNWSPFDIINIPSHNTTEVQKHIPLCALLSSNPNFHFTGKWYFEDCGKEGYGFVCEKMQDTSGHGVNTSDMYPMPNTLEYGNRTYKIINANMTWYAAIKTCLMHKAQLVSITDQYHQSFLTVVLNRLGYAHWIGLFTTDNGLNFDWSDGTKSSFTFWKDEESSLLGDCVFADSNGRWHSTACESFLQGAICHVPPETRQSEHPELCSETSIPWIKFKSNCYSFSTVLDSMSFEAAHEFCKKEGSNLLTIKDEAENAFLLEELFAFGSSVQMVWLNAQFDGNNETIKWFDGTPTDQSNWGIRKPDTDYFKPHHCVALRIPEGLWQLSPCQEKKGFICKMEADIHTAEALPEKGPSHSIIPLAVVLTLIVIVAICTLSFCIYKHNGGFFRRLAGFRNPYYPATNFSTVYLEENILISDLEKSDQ

| SMILES | inhibition (Homo sapiens [6]) | inhibition (Homo sapiens [14]) | other results |
| --- | --- | --- | --- |
| CC(C)C[C@H](c1c(O)c(C=O)c(O)c(C=O)c1O)[C@@]1(C)CC[C@@H]2[C@@H]1[C@H]1[C@@H](CC[C@@]2(C)O)C1(C)C [MACROCARPAL B] | 19% | 41.6% | OD (Podocyte [1]): 0.6; OD (Podocyte [2]): 0.5; Activity (Homo sapiens [3]): inactive; inhibition (Homo sapiens [4]): Dose-Dependent Effect; OD (Podocyte [5]): 0.6; Activity (Podocyte [7]): 50.7; Flu intensity (Podocytes): 2.1; Kd [8]: 1.47 µM; Activity (Podocyte [9]): Dose-Dependent Effect; Imax (Homo sapiens [10]): 30%; OD (Podocyte [11]): 0.7; OD (Podocyte [12]): 0.8; OD (Podocyte [13]): 0.6 |
| Cc1c2oc3c(C)ccc(C(=O)N[C@@H]4C(=O)N[C@H](C(C)C)C(=O)N5CCC[C@H]5C(=O)N(C)CC(=O)N(C)[C@@H](C(C)C)C(=O)O[C@@H]4C)c3nc-2c(C(=O)N[C@@H]2C(=O)N[C@H](C(C)C)C(=O)N3CCC[C@H]3C(=O)N(C)CC(=O)N(C)[C@@H](C(C)C)C(=O)O[C@@H]2C)c(N)c1=O (I: T[dV]P[Sar][NMeV] / II: T[dV]P[Sar][NMeV]; ester I:1-I:C, II:1-II:C; linker I:N-II:N via Actinocin(9to1)) | – | 79.3% | – |
| CC1(C)CC[C@]2(C(=O)O)CC[C@]3(COC(=O)/C=C/c4ccc(O)c(O)c4)C(=CC[C@@H]4[C@@]5(C)CC[C@H](O)C(C)(C)[C@@H]5CC[C@]43C)[C@@H]2C1 | – | 20.5% | – |
| CC(C)C[C@@H](c1c(O)c(C=O)c(O)c(C=O)c1O)[C@@]1(C)CC[C@H]2C1=C[C@H](C(C)(C)O)CC[C@H]2C | 11.3% | 21.2% | – |
| CC(C)=CCC[C@]1(C)C=Cc2c(O)c3c(c(CC=C(C)C)c2O1)O[C@]12C(=C[C@@H]4C[C@H]1C(C)(C)O[C@@]2(C/C=C(/C)C(=O)O)C4=O)C3=O | 13.4% | 73.1% | – |
| CC(C)=CCc1c(O)c(CC=C(C)C)c2oc3c(O)ccc(O)c3c(=O)c2c1O | 12.2% | 49.4% | – |
| COc1cc(O)c2c(=O)c3cc(CC=C(C)C)c(O)c(O)c3oc2c1CC=C(C)C | 10.7% | 51.8% | – |
| CC(C)C[C@@H](c1c(O)c(C=O)c(O)c(C=O)c1O)[C@@H]1CC[C@@](C)(O)[C@@H]2[C@@H]3[C@H](CC[C@]21C)C3(C)C | 12.6% | 34.3% | – |
| CC(=O)O[C@H]1C[C@@H]2C(COC(=O)CC(C)C)=CO[C@@H](OC(=O)CC(C)C)[C@@H]2[C@@]12CO2 | – | 26.4% | – |
| CO[C@H]1C[C@H](O[C@H]2[C@H](C)O[C@@H](O[C@@H]3/C(C)=C/C[C@@H]4C[C@@H](C[C@]5(C=C[C@H](C)[C@@H](C6CCCCC6)O5)O4)OC(=O)[C@@H]4C=C(C)[C@@H](O)[C@H]5OC/C(=C\C=C\[C@@H]3C)[C@]54O)C[C@@H]2OC)O[C@@H](C)[C@@H]1O | 12% | 27.1% | – |
| CC(=O)C[C@]1(O)C(=O)C2=C(OC[C@@H]2C)c2ccc3c(C)cccc3c21 | 10.1% | 28.7% | – |
| CC(=O)O[C@H]1C[C@]2(O)C(COC(=O)C(OC(=O)CC(C)C)C(C)C)=CO[C@@H](OC(=O)CC(C)C)[C@@H]2[C@@]12CO2 (some centres undefined) | 7.7% | 30.2% | – |
| CCCCCc1cc(O)c(C/C=C(\C)CCC=C(C)C)c(O)c1 | 9.7% | 32.9% | – |
| CC(C)=CCc1cc2c(=O)c3c(O)c(CC=C(C)C)c(O)c(CC=C(C)C)c3oc2c(O)c1O | – | 55.4% | – |
| COc1c(O)c2c(=O)cc(OC)c3c4c(OC)cc(O)c5c(=O)c(OC)c6c(c(c1[C@H](C(C)=O)[C@](C)(O)C6)c23)c54 | 11.9% | 74.3% | – |
